From ChEMBL document CHEMBL1201862, “PubChem BioAssay data set” (2004) come the findings set out here.

Activity calls are given as the source filed them.

The target of assay [1] is T1, Short transient receptor potential channel 4 (Mus musculus, UniProt Q9QUQ5).
T1 sequence (Q9QUQ5 whole entry): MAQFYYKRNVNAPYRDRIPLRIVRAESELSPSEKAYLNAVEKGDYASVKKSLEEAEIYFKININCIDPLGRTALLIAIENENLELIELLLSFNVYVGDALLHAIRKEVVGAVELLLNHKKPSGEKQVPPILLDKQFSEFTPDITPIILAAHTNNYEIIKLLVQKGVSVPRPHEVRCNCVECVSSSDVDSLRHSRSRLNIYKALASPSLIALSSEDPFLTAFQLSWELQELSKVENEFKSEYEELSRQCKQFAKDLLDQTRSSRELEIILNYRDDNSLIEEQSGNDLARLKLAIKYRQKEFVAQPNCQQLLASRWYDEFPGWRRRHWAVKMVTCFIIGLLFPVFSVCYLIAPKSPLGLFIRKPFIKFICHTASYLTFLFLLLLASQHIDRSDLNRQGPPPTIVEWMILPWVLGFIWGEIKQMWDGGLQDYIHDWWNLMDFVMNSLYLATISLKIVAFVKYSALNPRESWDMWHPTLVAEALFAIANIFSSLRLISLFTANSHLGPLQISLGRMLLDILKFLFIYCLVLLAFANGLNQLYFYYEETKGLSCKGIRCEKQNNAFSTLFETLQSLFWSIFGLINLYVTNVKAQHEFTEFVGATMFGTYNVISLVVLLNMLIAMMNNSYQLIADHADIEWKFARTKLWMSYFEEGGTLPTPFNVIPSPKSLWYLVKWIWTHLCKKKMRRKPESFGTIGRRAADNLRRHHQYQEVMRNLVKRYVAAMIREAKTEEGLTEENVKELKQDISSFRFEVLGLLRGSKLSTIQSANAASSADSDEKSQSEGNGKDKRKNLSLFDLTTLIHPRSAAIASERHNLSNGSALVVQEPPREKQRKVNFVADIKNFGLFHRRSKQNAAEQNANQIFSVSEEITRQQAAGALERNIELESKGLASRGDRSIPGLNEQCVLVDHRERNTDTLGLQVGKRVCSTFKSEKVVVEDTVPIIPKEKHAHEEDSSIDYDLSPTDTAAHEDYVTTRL
Briefly: mouse TRPC4 channel inhibitors, dose response, cell-based, HEK293 TRPC4/mu-opioid, Fluo-4 calcium (AID 434942).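 Also: potency of inhibitors blocking the TRPC4 calcium response.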 The format is functional.

Assay [2] deals with Cysteine protease ATG4B (Homo sapiens, UniProt Q9Y4P1). The format is functional.
Sequence of Cysteine protease ATG4B (Q9Y4P1 whole entry): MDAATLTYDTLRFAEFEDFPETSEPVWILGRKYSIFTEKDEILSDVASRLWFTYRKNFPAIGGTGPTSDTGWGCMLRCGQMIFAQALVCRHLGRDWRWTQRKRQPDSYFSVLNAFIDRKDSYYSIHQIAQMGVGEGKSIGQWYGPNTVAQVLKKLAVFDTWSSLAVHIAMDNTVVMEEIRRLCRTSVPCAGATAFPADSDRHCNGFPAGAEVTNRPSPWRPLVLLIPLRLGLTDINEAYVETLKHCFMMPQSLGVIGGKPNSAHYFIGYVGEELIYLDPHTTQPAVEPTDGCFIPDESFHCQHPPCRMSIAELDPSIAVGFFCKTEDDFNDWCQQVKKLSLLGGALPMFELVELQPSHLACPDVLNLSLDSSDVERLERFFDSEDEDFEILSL
Assay [3] deals with Phospholipase A2 (Homo sapiens, UniProt P04054). The format is functional.
Sequence of Phospholipase A2 (P04054 whole entry): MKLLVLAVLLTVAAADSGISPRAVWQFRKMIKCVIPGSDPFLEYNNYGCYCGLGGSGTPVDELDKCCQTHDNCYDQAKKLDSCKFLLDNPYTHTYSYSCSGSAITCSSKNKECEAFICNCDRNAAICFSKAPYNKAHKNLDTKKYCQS
Assay [4] addresses Genome polyprotein (dengue virus type 2, UniProt P29990). In words: Dengue-2 NS5 methyltransferase inhibitors, primary screen, biochemical, confirmation dose response (AID 588689). It is filed as functional.
Assay [5] has as its target T2, Sentrin-specific protease 8 (Homo sapiens, UniProt Q96LD8).
T2 sequence (Q96LD8 whole entry): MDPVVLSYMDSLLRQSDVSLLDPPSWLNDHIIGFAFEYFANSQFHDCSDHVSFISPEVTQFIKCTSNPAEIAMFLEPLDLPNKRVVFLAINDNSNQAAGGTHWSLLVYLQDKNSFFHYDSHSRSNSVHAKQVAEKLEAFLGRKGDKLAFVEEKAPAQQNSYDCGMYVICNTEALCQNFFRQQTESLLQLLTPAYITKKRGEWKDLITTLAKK
Briefly: SENP8 protease inhibitors, SAR follow-up, biochemical, luminescence (AID 504501). The format is functional.

Assay [6] deals with T3, Caspase-3 (Homo sapiens, UniProt P42574).
T3 sequence (P42574 whole entry): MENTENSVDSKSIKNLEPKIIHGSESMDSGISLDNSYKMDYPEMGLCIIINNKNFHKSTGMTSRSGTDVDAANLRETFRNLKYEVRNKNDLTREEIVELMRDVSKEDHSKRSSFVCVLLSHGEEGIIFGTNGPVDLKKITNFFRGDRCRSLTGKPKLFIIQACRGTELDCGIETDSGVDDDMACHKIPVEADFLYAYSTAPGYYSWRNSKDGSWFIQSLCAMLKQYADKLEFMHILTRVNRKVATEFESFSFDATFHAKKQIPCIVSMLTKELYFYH
Briefly: SAR Analysis of small molecule inhibitors of Sentrin-specific proteases (SENPs) using a Caspase-3 Selectivity assay. [Related pubchem assays (depositor defined):AID2540, AID2599, AID434973, AID489001]. It is filed as functional.

In assay [7] the target is T4, Sentrin-specific protease 6 (Homo sapiens, UniProt Q9GZR1).
T4 sequence (Q9GZR1 whole entry): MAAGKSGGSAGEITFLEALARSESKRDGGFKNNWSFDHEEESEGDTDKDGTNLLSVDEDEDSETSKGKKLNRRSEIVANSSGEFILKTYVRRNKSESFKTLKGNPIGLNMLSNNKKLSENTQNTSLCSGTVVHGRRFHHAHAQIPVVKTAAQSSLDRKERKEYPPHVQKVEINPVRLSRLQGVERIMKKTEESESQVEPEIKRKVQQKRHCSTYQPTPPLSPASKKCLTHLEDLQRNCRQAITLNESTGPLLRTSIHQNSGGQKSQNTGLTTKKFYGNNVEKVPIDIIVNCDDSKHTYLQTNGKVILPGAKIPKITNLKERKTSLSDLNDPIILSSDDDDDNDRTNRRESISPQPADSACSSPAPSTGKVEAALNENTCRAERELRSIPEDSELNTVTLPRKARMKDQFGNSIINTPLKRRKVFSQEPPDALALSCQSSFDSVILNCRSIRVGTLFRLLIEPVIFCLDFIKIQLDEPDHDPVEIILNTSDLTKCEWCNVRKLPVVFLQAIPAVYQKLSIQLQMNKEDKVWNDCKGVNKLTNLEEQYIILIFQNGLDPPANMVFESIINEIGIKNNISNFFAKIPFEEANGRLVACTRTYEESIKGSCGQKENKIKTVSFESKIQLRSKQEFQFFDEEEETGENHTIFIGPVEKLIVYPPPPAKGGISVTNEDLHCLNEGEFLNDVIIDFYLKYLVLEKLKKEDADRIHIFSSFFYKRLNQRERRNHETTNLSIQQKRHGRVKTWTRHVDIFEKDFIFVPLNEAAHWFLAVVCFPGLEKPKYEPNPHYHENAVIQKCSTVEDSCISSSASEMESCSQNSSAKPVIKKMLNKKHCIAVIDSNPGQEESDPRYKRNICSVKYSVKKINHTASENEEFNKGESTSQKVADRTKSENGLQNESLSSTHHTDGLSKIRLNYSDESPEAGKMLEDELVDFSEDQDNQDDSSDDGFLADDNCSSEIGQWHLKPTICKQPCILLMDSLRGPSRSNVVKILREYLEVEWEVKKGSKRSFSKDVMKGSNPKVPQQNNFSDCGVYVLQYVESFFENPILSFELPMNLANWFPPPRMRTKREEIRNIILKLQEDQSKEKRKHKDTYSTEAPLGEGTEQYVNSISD
Briefly: SAR Analysis of small molecule inhibitors of Sentrin-specific protease 6 (SENP6) using a Luminescent assay. [Related pubchem assays (depositor defined):AID2582, AID2599]. The format is functional.

Assay [8] concerns the target T5, Sentrin-specific protease 7 (Homo sapiens, UniProt Q9BQF6).
T5 sequence (Q9BQF6 whole entry): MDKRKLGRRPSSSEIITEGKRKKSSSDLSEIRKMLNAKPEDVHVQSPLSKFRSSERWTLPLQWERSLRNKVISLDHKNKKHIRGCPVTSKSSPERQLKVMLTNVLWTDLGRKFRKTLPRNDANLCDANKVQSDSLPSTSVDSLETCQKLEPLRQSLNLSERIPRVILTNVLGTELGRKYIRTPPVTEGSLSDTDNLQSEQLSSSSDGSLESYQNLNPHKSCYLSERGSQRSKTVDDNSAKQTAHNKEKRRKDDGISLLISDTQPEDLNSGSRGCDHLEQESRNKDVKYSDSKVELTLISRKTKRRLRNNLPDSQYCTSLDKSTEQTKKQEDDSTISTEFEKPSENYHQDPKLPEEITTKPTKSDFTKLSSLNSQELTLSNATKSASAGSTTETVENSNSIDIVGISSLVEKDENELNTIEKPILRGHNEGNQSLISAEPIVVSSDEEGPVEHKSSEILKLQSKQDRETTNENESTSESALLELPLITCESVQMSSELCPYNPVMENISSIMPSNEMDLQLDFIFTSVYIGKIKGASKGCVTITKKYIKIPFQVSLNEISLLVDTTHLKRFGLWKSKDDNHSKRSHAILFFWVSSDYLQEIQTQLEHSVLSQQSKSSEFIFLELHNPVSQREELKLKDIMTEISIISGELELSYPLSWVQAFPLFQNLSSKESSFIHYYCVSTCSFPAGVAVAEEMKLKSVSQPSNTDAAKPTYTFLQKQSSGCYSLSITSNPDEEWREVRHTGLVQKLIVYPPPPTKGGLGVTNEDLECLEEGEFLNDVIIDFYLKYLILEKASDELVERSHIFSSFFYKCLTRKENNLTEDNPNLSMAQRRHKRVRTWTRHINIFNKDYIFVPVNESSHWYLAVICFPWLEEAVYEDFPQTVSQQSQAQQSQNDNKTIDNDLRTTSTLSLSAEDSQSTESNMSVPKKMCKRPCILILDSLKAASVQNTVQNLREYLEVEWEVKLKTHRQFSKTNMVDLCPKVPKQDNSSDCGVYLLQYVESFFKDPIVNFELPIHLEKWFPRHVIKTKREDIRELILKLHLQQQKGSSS
In words: SENP7 protease inhibitors, SAR follow-up, biochemical, luminescence (AID 504497). The format is functional.

Assay [9] concerns HEK293. Briefly: cells. Conditions: Homo sapiens. The format is functional, cell-based.
The target of assay [10] is T6, Nuclear receptor subfamily 0 group B member 1 (Homo sapiens, UniProt P51843).
T6 sequence (P51843 whole entry): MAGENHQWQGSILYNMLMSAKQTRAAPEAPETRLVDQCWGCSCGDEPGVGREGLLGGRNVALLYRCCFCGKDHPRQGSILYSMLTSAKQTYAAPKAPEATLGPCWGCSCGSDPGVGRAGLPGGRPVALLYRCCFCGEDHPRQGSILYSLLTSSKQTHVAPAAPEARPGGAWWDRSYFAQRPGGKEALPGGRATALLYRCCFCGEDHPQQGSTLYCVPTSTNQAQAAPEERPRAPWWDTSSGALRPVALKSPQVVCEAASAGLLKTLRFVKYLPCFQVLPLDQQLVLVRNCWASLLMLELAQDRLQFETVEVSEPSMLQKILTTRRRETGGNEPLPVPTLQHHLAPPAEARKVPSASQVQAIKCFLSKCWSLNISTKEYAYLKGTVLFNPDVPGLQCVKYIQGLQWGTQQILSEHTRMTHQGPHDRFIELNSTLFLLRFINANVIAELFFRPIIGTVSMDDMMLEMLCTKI
Briefly: Luminescence-based cell-based high throughput dose response assay for inhibitors of the orphan nuclear receptor subfamily 0, group B, member 1 (DAX1; NR0B1). [Related pubchem assays (depositor defined):AID504766, AID504790]. It is filed as functional.

The target of assay [11] is Beta-galactosidase (Escherichia coli, UniProt Q8VNN2). In words: PubChem AID 485352. It is filed as functional.
Sequence of Beta-galactosidase (Q8VNN2 whole entry): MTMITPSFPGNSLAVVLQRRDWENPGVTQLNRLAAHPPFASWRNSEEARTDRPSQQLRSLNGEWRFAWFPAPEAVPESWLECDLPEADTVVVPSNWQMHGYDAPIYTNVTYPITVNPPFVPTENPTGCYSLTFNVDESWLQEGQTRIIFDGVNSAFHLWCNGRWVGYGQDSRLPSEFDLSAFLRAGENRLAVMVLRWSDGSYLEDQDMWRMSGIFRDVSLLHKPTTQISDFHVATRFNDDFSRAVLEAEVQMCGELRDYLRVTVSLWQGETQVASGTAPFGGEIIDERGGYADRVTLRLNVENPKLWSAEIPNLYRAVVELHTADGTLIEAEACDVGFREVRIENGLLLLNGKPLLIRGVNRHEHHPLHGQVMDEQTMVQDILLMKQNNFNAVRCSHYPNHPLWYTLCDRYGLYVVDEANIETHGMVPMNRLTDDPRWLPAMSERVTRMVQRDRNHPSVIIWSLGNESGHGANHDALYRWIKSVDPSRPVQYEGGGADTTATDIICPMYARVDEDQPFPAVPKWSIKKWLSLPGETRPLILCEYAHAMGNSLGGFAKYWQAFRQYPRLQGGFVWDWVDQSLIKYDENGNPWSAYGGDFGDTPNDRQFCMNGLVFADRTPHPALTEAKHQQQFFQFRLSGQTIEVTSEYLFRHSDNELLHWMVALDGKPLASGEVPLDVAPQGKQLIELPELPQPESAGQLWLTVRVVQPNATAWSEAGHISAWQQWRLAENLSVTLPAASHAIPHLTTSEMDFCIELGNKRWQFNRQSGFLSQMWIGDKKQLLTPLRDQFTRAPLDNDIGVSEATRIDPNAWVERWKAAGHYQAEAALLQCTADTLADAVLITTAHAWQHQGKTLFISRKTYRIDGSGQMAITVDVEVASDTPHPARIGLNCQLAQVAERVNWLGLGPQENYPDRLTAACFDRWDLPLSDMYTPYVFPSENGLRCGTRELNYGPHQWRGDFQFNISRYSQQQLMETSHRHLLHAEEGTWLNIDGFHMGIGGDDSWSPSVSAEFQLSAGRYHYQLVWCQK
Assay [12] concerns the target T7, Type-1 angiotensin II receptor (Homo sapiens, UniProt P30556).
T7 sequence (P30556 whole entry): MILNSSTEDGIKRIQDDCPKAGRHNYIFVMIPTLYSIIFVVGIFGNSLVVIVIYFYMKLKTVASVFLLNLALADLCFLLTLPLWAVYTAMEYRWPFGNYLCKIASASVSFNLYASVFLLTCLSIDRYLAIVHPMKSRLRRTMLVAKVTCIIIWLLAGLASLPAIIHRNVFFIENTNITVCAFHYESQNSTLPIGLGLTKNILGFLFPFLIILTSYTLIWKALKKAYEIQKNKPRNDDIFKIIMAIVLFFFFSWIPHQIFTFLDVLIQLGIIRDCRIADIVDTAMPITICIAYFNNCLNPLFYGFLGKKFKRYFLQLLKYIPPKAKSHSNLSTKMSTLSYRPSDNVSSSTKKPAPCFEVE
In words: AT1 receptor antagonists, dose response, selectivity assay for APJ receptor antagonist project, cell-based, uHTS hits (AID 463214).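 Also: antagonist potency against angiotensin II stimulated AT1 response.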 The format is functional.

Assay [13] can be described thus: ARNT/TACC3 interaction disruptors, potency, confirmation, biochemical, AlphaScreen, cherry-picked samples (AID 651703).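 Also: His-tagged ARNT PAS-B domain paired with GST-TACC3 E629A dimer coactivator fragment; potency of inhibitors that break up the complex and lower AlphaScreen signal.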 It is filed as functional, Homo sapiens.

Sequence of Genome polyprotein (P29990 2492-3391 limits assumed): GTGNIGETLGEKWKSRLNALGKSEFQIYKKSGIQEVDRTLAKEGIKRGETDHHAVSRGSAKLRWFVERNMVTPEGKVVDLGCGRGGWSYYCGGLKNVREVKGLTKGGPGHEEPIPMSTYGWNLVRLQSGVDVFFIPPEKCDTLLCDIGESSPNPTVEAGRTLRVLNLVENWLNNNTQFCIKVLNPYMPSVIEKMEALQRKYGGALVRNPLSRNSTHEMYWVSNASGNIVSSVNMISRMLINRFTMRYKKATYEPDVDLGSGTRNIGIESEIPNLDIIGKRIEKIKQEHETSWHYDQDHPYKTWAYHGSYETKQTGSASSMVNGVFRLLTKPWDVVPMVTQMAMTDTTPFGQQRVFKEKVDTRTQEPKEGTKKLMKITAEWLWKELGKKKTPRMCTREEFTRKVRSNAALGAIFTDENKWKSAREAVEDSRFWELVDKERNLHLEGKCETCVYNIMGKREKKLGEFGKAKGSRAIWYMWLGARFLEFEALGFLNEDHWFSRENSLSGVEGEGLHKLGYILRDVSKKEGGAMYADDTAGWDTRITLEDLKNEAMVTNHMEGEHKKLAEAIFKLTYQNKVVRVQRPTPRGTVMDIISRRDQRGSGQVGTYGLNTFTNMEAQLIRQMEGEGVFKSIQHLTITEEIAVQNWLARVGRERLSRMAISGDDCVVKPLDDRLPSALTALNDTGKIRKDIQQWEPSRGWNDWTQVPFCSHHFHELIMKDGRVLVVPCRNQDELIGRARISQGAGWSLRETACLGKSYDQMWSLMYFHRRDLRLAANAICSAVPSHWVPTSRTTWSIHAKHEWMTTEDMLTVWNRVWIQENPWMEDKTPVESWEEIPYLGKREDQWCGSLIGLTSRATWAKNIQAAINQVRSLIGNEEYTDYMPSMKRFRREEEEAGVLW

Consider `Cc1ccc(/C=C2\SC(=S)N(C(Cc3ccccc3)C(=O)O)C2=O)cc1` (stereo not drawn), for which the EC50 in assay [1] was 5.96 µM (active). In addition, the IC50 in [2] is 9.14 µM (active); in [3] it was 10.6 µM (active); in assay [4] it was 39.1 µM (active).
In the case of `Cc1nn(CC(=O)Nc2sc3c(c2C#N)CCCC3)c(C)c1I`, the IC50 in [5], in assay [6], in assay [7] and in [8] was > 99 µM (inactive) each time.
Turning to `O=C(O)Cc1nn(Cc2ccc(Cl)cc2)c(=O)c2ccccc12`, the IC50 in [9] and in assay [10] was > 67.5 µM (inactive) throughout.
`Cc1ccc(/C=N/NC(=S)N2CCOCC2)cc1`: in assay [11], the EC50 was > 40 µM (inactive). Also, in assay [12], the IC50 was 8.6 µM (active). In [13], the AC50 is 112 µM (active).
As to `CN(C)CCN(C(=O)c1ccc(S(=O)(=O)N2CCCCCC2)cc1)c1nc2cc3c(cc2s1)OCCO3`, the IC50 in assay [5], in assay [6], in [7] and in [8] was > 99 µM (inactive) throughout.
On to `O=C(CNC(=O)c1ccc(Br)o1)OCC(=O)c1cccc([N+](=O)[O-])c1`, for which the EC50 in assay [11] was > 40 µM (inactive). Besides, the IC50 in assay [12] is reported as 27.3 µM (not active).
`CC(=O)c1csc(COc2ccc(Cl)cc2)n1`: the IC50 in [9] and in assay [10] was > 67.6 µM (inactive) in each case.
With `CCCCCCOc1ccc(N2C(=O)CC(SC(=N)N/N=C(\C)c3cccs3)C2=O)cc1` (stereo not drawn), the IC50 in [2] was 9.46 µM (active); in assay [3], 5.58 µM (active).

By EC50 is commonly meant the concentration giving half of the maximal effect. The term IC50 denotes the concentration that inhibits the measured activity by half. A word on the AC50: it is the concentration at which the activity in the assay is half-maximal.
